Reference: the supplement of paper PMC10307832

How the values were obtained:
Assay in all cases: relative viability (nuclei count vs DMSO), 5 days (fraction); higher = more cells survive
NCI-H1975 = tested on: NCI-H1975
Outline: (§1)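 Nuclei were stained with Hoechst during a one-step fixation (final 0.05% Triton X-100, 1% formaldehyde, 1 ug/ml Hoechst) carried out 5 days after dosing, then counted on 4× images. The cells, lung cancer lines in 1536-well plates, had been dosed by pin tool the day after seeding with one drug alone or a fixed anchor-drug dose plus five library-drug doses (not always all listed) in √10 steps. Relative viability is the nuclei count in treated wells divided by that in vehicle wells, and each value is the median of duplicate plates.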

CAL-12T = tested on: CAL-12T
Outline: as §1

LCLC-97TM1 = tested on: LCLC-97TM1
Outline: as §1

NCI-H1563 = tested on: NCI-H1563
Outline: as §1

NCI-H1734 = tested on: NCI-H1734
Outline: as §1

HCC-827 = tested on: HCC-827
Outline: as §1

H3255 = tested on: H3255
Outline: as §1

NCI-H1355 = tested on: NCI-H1355
Outline: as §1

NCI-H661 = tested on: NCI-H661
Outline: as §1

NCI-H322M = tested on: NCI-H322M
Outline: as §1

NCI-H1755 = tested on: NCI-H1755
Outline: as §1

NCI-H520 = tested on: NCI-H520
Outline: as §1

NCI-H1650 = tested on: NCI-H1650
Outline: as §1

RERF-LC-KJ = tested on: RERF-LC-KJ
Outline: as §1

LK-2 = tested on: LK-2
Outline: as §1

PC-14 = tested on: PC-14
Outline: as §1

NCI-H2405 = tested on: NCI-H2405
Outline: as §1

NCI-H2342 = tested on: NCI-H2342
Outline: as §1

NCI-H2228 = tested on: NCI-H2228
Outline: as §1

PC-3 [JPC-3] = tested on: PC-3 [JPC-3]
Outline: as §1

HCC-15 = tested on: HCC-15
Outline: as §1

EKVX = tested on: EKVX
Outline: as §1

SMILES: Nc1ccn([C@@H]2O[C@H](CO)[C@@H](O)[C@@H]2O)c(=O)n1 [Cytarabine] + Cc1nc(Nc2ncc(C(=O)Nc3c(C)cccc3Cl)s2)cc(N2CCN(CCO)CC2)n1 [Dasatinib] (partner 0.075 µM)
- relative viability (NCI-H1975; first compound 0.005 µM): 0.329
- relative viability (NCI-H1975; first compound 0.01581 µM): 0.47
- relative viability (NCI-H1975; first compound 0.05 µM): 0.338
- relative viability (NCI-H1975; first compound 0.1581 µM): 0.297
- relative viability (NCI-H1975; first compound 0.5 µM): 0.191
- relative viability (CAL-12T; first compound 0.005 µM): 0.302
- relative viability (CAL-12T; first compound 0.01581 µM): 0.306
- relative viability (CAL-12T; first compound 0.05 µM): 0.447
- relative viability (CAL-12T; first compound 0.1581 µM): 0.284
- relative viability (CAL-12T; first compound 0.5 µM): 0.109
- relative viability (LCLC-97TM1; first compound 0.005 µM): 0.795
- relative viability (LCLC-97TM1; first compound 0.01581 µM): 0.839
- relative viability (LCLC-97TM1; first compound 0.05 µM): 0.798
- relative viability (LCLC-97TM1; first compound 0.1581 µM): 0.227
- relative viability (LCLC-97TM1; first compound 0.5 µM): 0.264
- relative viability (NCI-H1563; first compound 0.005 µM): 0.506
- relative viability (NCI-H1563; first compound 0.01581 µM): 0.466
- relative viability (NCI-H1563; first compound 0.05 µM): 0.46
- relative viability (NCI-H1563; first compound 0.1581 µM): 0.383
- relative viability (NCI-H1563; first compound 0.5 µM): 0.393
- relative viability (NCI-H1734; first compound 0.005 µM): 0.419
- relative viability (NCI-H1734; first compound 0.01581 µM): 0.221
- relative viability (NCI-H1734; first compound 0.05 µM): 0.218
- relative viability (NCI-H1734; first compound 0.1581 µM): 0.125
- relative viability (NCI-H1734; first compound 0.5 µM): 0.113
- relative viability (HCC-827; first compound 0.005 µM): 0.445
- relative viability (HCC-827; first compound 0.01581 µM): 0.397
- relative viability (HCC-827; first compound 0.05 µM): 0.4
- relative viability (HCC-827; first compound 0.1581 µM): 0.226
- relative viability (HCC-827; first compound 0.5 µM): 0.227
- relative viability (H3255; first compound 0.005 µM): 0.363
- relative viability (H3255; first compound 0.01581 µM): 0.3
- relative viability (H3255; first compound 0.05 µM): 0.273
- relative viability (H3255; first compound 0.1581 µM): 0.199
- relative viability (H3255; first compound 0.5 µM): 0.319
- relative viability (NCI-H1355; first compound 0.005 µM): 0.641
- relative viability (NCI-H1355; first compound 0.01581 µM): 0.672
- relative viability (NCI-H1355; first compound 0.05 µM): 0.486
- relative viability (NCI-H1355; first compound 0.1581 µM): 0.352
- relative viability (NCI-H1355; first compound 0.5 µM): 0.369
- relative viability (NCI-H661; first compound 0.005 µM): 0.636
- relative viability (NCI-H661; first compound 0.01581 µM): 0.529
- relative viability (NCI-H661; first compound 0.05 µM): 0.516
- relative viability (NCI-H661; first compound 0.1581 µM): 0.358
- relative viability (NCI-H661; first compound 0.5 µM): 0.283
- relative viability (NCI-H322M; first compound 0.005 µM): 0.259
- relative viability (NCI-H322M; first compound 0.01581 µM): 0.272
- relative viability (NCI-H322M; first compound 0.05 µM): 0.26
- relative viability (NCI-H322M; first compound 0.1581 µM): 0.243
- relative viability (NCI-H322M; first compound 0.5 µM): 0.274
- relative viability (NCI-H1755; first compound 0.005 µM): 0.439
- relative viability (NCI-H1755; first compound 0.01581 µM): 0.316
- relative viability (NCI-H1755; first compound 0.05 µM): 0.372
- relative viability (NCI-H1755; first compound 0.1581 µM): 0.257
- relative viability (NCI-H1755; first compound 0.5 µM): 0.222
- relative viability (NCI-H520; first compound 0.005 µM): 0.218
- relative viability (NCI-H520; first compound 0.01581 µM): 0.199
- relative viability (NCI-H520; first compound 0.05 µM): 0.263
- relative viability (NCI-H520; first compound 0.1581 µM): 0.187
- relative viability (NCI-H520; first compound 0.5 µM): 0.142
- relative viability (NCI-H1650; first compound 0.005 µM): 0.257
- relative viability (NCI-H1650; first compound 0.01581 µM): 0.234
- relative viability (NCI-H1650; first compound 0.05 µM): 0.177
- relative viability (NCI-H1650; first compound 0.1581 µM): 0.136
- relative viability (NCI-H1650; first compound 0.5 µM): 0.122
- relative viability (RERF-LC-KJ; first compound 0.005 µM): 0.689
- relative viability (RERF-LC-KJ; first compound 0.01581 µM): 0.646
- relative viability (RERF-LC-KJ; first compound 0.05 µM): 0.524
- relative viability (RERF-LC-KJ; first compound 0.1581 µM): 0.409
- relative viability (RERF-LC-KJ; first compound 0.5 µM): 0.281
- relative viability (LK-2; first compound 0.005 µM): 0.309
- relative viability (LK-2; first compound 0.01581 µM): 0.27
- relative viability (LK-2; first compound 0.05 µM): 0.236
- relative viability (LK-2; first compound 0.1581 µM): 0.157
- relative viability (LK-2; first compound 0.5 µM): 0.163
- relative viability (PC-14; first compound 0.005 µM): 0.232
- relative viability (PC-14; first compound 0.01581 µM): 0.234
- relative viability (PC-14; first compound 0.05 µM): 0.18
- relative viability (PC-14; first compound 0.1581 µM): 0.0381
- relative viability (PC-14; first compound 0.5 µM): 0.0648
- relative viability (NCI-H2405; first compound 0.005 µM): 0.206
- relative viability (NCI-H2405; first compound 0.01581 µM): 0.17
- relative viability (NCI-H2405; first compound 0.05 µM): 0.167
- relative viability (NCI-H2405; first compound 0.1581 µM): 0.144
- relative viability (NCI-H2405; first compound 0.5 µM): 0.146
- relative viability (NCI-H2342; first compound 0.005 µM): 0.309
- relative viability (NCI-H2342; first compound 0.01581 µM): 0.295
- relative viability (NCI-H2342; first compound 0.05 µM): 0.262
- relative viability (NCI-H2342; first compound 0.1581 µM): 0.257
- relative viability (NCI-H2342; first compound 0.5 µM): 0.277
- relative viability (NCI-H2228; first compound 0.005 µM): 0.299
- relative viability (NCI-H2228; first compound 0.01581 µM): 0.158
- relative viability (NCI-H2228; first compound 0.05 µM): 0.159
- relative viability (NCI-H2228; first compound 0.1581 µM): 0.0724
- relative viability (NCI-H2228; first compound 0.5 µM): 0.0511
- relative viability (PC-3 [JPC-3]; first compound 0.005 µM): 0.952
- relative viability (PC-3 [JPC-3]; first compound 0.01581 µM): 0.884
- relative viability (PC-3 [JPC-3]; first compound 0.05 µM): 1.01
- relative viability (PC-3 [JPC-3]; first compound 0.1581 µM): 0.63
- relative viability (PC-3 [JPC-3]; first compound 0.5 µM): 0.603
- relative viability (HCC-15; first compound 0.005 µM): 0.559
- relative viability (HCC-15; first compound 0.01581 µM): 0.679
- relative viability (HCC-15; first compound 0.05 µM): 0.683
- relative viability (HCC-15; first compound 0.1581 µM): 0.479
- relative viability (HCC-15; first compound 0.5 µM): 0.401
- relative viability (EKVX; first compound 0.005 µM): 0.567
- relative viability (EKVX; first compound 0.01581 µM): 0.416
- relative viability (EKVX; first compound 0.05 µM): 0.456
- relative viability (EKVX; first compound 0.1581 µM): 0.357
- relative viability (EKVX; first compound 0.5 µM): 0.273
